The values below come from ChEMBL document CHEMBL1201862, “PubChem BioAssay data set” (2004).

Test systems include T47D; OVCAR-4; PC-3; SN12C; BT-549; SF-268; 786-0; K562; SNB-19; HT-29; SK-MEL-28; SNB-75; ACHN; SF-539; NCI-H23; HOP-62.
Holding throughout (test): NCI anticancer screen, dose series, 48 h

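The compound was tested at five concentrations on cells cultured in 96-well plates, with a 48-hour exposure period. Abbreviation: GI50, concentration required for 50% inhibition of growth.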 Active and inactive are the calls of the source. Cut-off read from the data, not from the text of the source: active = GI50 up to about 1.1 µM and inactive = higher. Some results are limits rather than exact numbers.

Regarding `COc1ccnc2c1C(=O)c1nc3ccccc3c3ccnc-2c13`, the GI50 in the assay on T47D was 0.291 µM (active); in the assay on OVCAR-4, 0.307 µM (active); in the assay on PC-3, 0.141 µM (active); in the assay on SN12C it was 0.112 µM (active); in the assay on BT-549, 0.397 µM (active); in the assay on SF-268, 0.137 µM (active). Moreover, the GI50 was 0.221 µM (active) in the assay on 786-0; 0.163 µM (active) in the assay with K562; 0.182 µM (active) in the assay with SNB-19; 0.0571 µM (active) in the assay with HT-29; 0.305 µM (active) with SK-MEL-28; 0.04 µM (active) in the assay on SNB-75. The GI50 with ACHN was 0.0634 µM (active); in the assay with SF-539, 0.373 µM (active); in the assay on NCI-H23 it was 0.271 µM (active); with HOP-62 it was 0.125 µM (active).
With `Cc1ccc(OCC2OC(n3cnc4c(Cl)nc(Nc5cc(Cl)cc(Cl)c5)nc43)CC2Oc2ccc(C)cc2)cc1` (centres undefined), the GI50 was 48.9 µM (inactive) with T47D; 10.4 µM (inactive) with OVCAR-4; > 100 µM (inactive) in the assay on PC-3; > 100 µM (inactive) with SN12C; > 100 µM (inactive) in the assay with BT-549; > 100 µM (inactive) with SF-268. For the same compound, the GI50 in the assay on 786-0 is > 100 µM (inactive); in the assay with K562, > 100 µM (inactive); with SNB-19, > 100 µM (inactive); in the assay with HT-29 it was > 100 µM (inactive); in the assay with SK-MEL-28 it was > 100 µM (inactive); with SNB-75, 17.4 µM (inactive). Also, the GI50 in the assay on ACHN, in the assay on SF-539 and with NCI-H23 was > 100 µM (inactive) throughout.
As to `O=C(N/N=C(COc1ccc(Cl)cc1)\N=C\c1cccnc1)c1ccncc1`, the GI50 with T47D was > 100 µM (inactive); with OVCAR-4 it was > 100 µM (inactive); in the assay with PC-3, > 100 µM (inactive); in the assay on SN12C, > 100 µM (inactive); in the assay on BT-549 it was > 100 µM (inactive); in the assay with SF-268 it was 63.8 µM (inactive). In addition, the GI50 was > 100 µM (inactive) in the assay on 786-0; 64.4 µM (inactive) in the assay with K562; > 100 µM (inactive) in the assay with SNB-19; > 100 µM (inactive) with HT-29; > 100 µM (inactive) in the assay on SK-MEL-28; 55.3 µM (inactive) in the assay with SNB-75. Also, the GI50 with ACHN is > 100 µM (inactive); in the assay with SF-539, 57.3 µM (inactive); with NCI-H23 it was > 100 µM (inactive); with HOP-62 it was > 100 µM (inactive).
In the case of `CCN(CC)CCNc1ccc([N+](=O)[O-])c2nc3ccc(OC)cc3c(N)c12`, the GI50 with T47D is 1.26 µM (inactive); in the assay with OVCAR-4, 1.22 µM (inactive); with PC-3, 1.36 µM (inactive); with SN12C it was 1.44 µM (inactive); in the assay with BT-549, 1.4 µM (inactive); in the assay on SF-268, 1.65 µM (inactive). Also, the GI50 was 0.614 µM (active) with 786-0; 0.238 µM (active) in the assay with K562; 1.67 µM (inactive) with SNB-19; 0.394 µM (active) with HT-29; 1.65 µM (inactive) with SK-MEL-28; 1.77 µM (inactive) in the assay on SNB-75. Besides, the GI50 with ACHN was 1.43 µM (inactive); with SF-539, 1.68 µM (inactive); with NCI-H23 it was 1.64 µM (inactive); with HOP-62, 1.7 µM (inactive).
With `Nc1nn2c(=O)c3ccccc3nc2s1`, the GI50 in the assay with T47D was 87.3 µM (inactive); in the assay on OVCAR-4 it was > 100 µM (inactive); with PC-3, > 100 µM (inactive); with SN12C, 65.6 µM (inactive); in the assay with BT-549, 22.6 µM (inactive); in the assay on SF-268, 38.8 µM (inactive). The GI50 is 42.5 µM (inactive) with 786-0; 28.4 µM (inactive) in the assay on K562; > 100 µM (inactive) with SNB-19; 41.2 µM (inactive) in the assay with HT-29; > 100 µM (inactive) in the assay with SK-MEL-28; > 100 µM (inactive) with SNB-75. The GI50 in the assay on ACHN is > 100 µM (inactive); in the assay on SF-539, 43.9 µM (inactive); in the assay on NCI-H23 it was 28.4 µM (inactive); in the assay with HOP-62 it was > 100 µM (inactive).
For the compound `COC1CC(OC2C(C)OC(OC3C(C)OC(OC4C(C)OC(O[C@H]5CC[C@@]6(C)C(=CC[C@]7(O)[C@@H]6C[C@@H](OC(C)=O)[C@@]6(C)[C@]7(O)CC[C@@]6(O)C(C)=O)C5)CC4OC)CC3OC)CC2OC)OC(C)C1O` (some centres undefined), the GI50 in the assay on T47D, in the assay on OVCAR-4, with PC-3, in the assay on SN12C, in the assay on BT-549 and with SF-268 was > 25 µM (inactive) throughout. In addition, the GI50 in the assay on 786-0, in the assay with K562, in the assay with SNB-19, in the assay on HT-29, in the assay on SNB-75 and in the assay with ACHN was > 25 µM (inactive) each time. The GI50 with SF-539, with NCI-H23 and with HOP-62 was > 25 µM (inactive) throughout.
`ClCc1nc2cc(Cl)ccc2o1`: the GI50 with T47D was 2.44 µM (inactive); in the assay with OVCAR-4 it was 1.71 µM (inactive); in the assay on PC-3 it was 5.15 µM (inactive); in the assay on SN12C it was 6.53 µM (inactive); in the assay with BT-549 it was 14.3 µM (inactive); in the assay with SF-268, 7.98 µM (inactive). Also, the GI50 was 1.67 µM (inactive) with 786-0; 2.56 µM (inactive) in the assay on K562; 7.48 µM (inactive) with SNB-19; 2.54 µM (inactive) with HT-29; 4.44 µM (inactive) in the assay on SK-MEL-28; 10.9 µM (inactive) in the assay with SNB-75. In addition, the GI50 is 1.72 µM (inactive) with ACHN, 5.51 µM (inactive) in the assay on SF-539, 8.99 µM (inactive) with NCI-H23 and 2.27 µM (inactive) in the assay with HOP-62.
Turning to `COC(=O)C1(c2cc3ccccc3n2S(=O)(=O)c2ccccc2)CC2C=CC1NC2` (centres undefined), the GI50 in the assay with T47D was 3.24 µM (inactive); with OVCAR-4, 1.98 µM (inactive); with PC-3, 1.61 µM (inactive); with SN12C, 2.08 µM (inactive); in the assay on BT-549, 2.36 µM (inactive); in the assay with 786-0 it was 1.94 µM (inactive). The GI50 is 1.77 µM (inactive) in the assay on K562; 2.2 µM (inactive) in the assay on SNB-19; 1.79 µM (inactive) in the assay with HT-29; 2.67 µM (inactive) in the assay on SK-MEL-28; 3.8 µM (inactive) in the assay on SNB-75; 1.84 µM (inactive) in the assay on ACHN. Moreover, the results for the GI50 in the assay on SF-539, in the assay on NCI-H23 and in the assay with HOP-62 were 1.95 µM (inactive), 2.18 µM (inactive) and 1.66 µM (inactive), respectively.
As to `COc1ccc(C[C@H]2COC(=O)[C@@H]2Cc2ccc(Br)cc2)cc1OC`, the GI50 in the assay with T47D is 6.08 µM (inactive); with OVCAR-4 it was 19.7 µM (inactive); with PC-3, 15.6 µM (inactive); with SN12C, 29.7 µM (inactive); in the assay with BT-549, 17.5 µM (inactive); in the assay on SF-268, 20.1 µM (inactive). For the same compound, the GI50 with 786-0 is 38 µM (inactive); in the assay with K562 it was 11.7 µM (inactive); with SNB-19 it was 26.9 µM (inactive); in the assay on HT-29 it was 30.4 µM (inactive); in the assay on SK-MEL-28 it was 42.2 µM (inactive); in the assay with SNB-75 it was 23.3 µM (inactive). For the same compound, the GI50 was 15.1 µM (inactive) in the assay with ACHN, 38.2 µM (inactive) in the assay on SF-539, 9.06 µM (inactive) in the assay with NCI-H23 and 33.6 µM (inactive) in the assay on HOP-62.
Consider `C/C=C(/C)C(=O)O[C@H](C[C@@H](C)[C@H]1CC(c2ccoc2)OC1=O)[C@@]1(C)C(=O)CCC2O[C@]21C` (some centres undefined), for which the GI50 with T47D, with OVCAR-4, in the assay on PC-3, in the assay on BT-549, with 786-0 and in the assay with K562 was > 100 µM (inactive) each time. Besides, the GI50 in the assay on SNB-19, in the assay with HT-29, with SK-MEL-28, with SNB-75, in the assay with ACHN and in the assay with SF-539 was > 100 µM (inactive) throughout. Moreover, the GI50 in the assay with NCI-H23 is > 100 µM (inactive).
Take `CC(C)CCCC(C)[C@H]1CC[C@H]2n3c(nnc3-c3ccccc3)CCC[C@]12C` (some centres undefined): the GI50 with T47D was 11.7 µM (inactive); in the assay on OVCAR-4, 12.5 µM (inactive); with PC-3, 9.33 µM (inactive); in the assay on SN12C, 8.91 µM (inactive); in the assay on BT-549 it was 19.8 µM (inactive); in the assay with SF-268, 12.7 µM (inactive). Further, the GI50 is 14.6 µM (inactive) in the assay on 786-0; 3.8 µM (inactive) in the assay with K562; 11.8 µM (inactive) with SNB-19; 17.5 µM (inactive) with HT-29; 16.9 µM (inactive) in the assay with SK-MEL-28; 17.5 µM (inactive) in the assay with SNB-75. For the same compound, the results for the GI50 in the assay on SF-539, with NCI-H23 and in the assay with HOP-62 were 11.9 µM (inactive), 12.4 µM (inactive) and 16 µM (inactive), respectively.
`Oc1cc(O)c2c(c1)O[C@H](c1cc(O)c(O)c(O)c1)[C@@H](O)C2` [GALLOCATECHIN]: the GI50 in the assay on T47D was 28.9 µM (inactive); in the assay with OVCAR-4, 22.4 µM (inactive); in the assay on PC-3, 30.7 µM (inactive); in the assay on SN12C, 18.3 µM (inactive); with BT-549 it was 23.6 µM (inactive); in the assay with SF-268, 23.6 µM (inactive). The GI50 in the assay with 786-0 is 18 µM (inactive); in the assay on K562 it was 18 µM (inactive); in the assay on SNB-19 it was > 100 µM (inactive); in the assay on SK-MEL-28 it was 43.3 µM (inactive); in the assay on SNB-75, 17.9 µM (inactive); in the assay with ACHN, 21.1 µM (inactive). Besides, the GI50 in the assay on SF-539 was 18 µM (inactive); in the assay on NCI-H23, 23.5 µM (inactive); in the assay on HOP-62, 17.5 µM (inactive).
In the case of `COc1ccc(S(=O)(=O)N2C(=O)CCC2C(=O)NC(N)=O)cc1` (centres undefined), the GI50 with T47D, in the assay on OVCAR-4, in the assay on PC-3, with SN12C, with BT-549 and with 786-0 was > 100 µM (inactive) in each case. Moreover, the GI50 with K562 was > 100 µM (inactive); with SNB-19, > 100 µM (inactive); in the assay on HT-29, > 100 µM (inactive); with SK-MEL-28, > 100 µM (inactive); in the assay with SNB-75 it was 0.381 µM (active); with ACHN, > 100 µM (inactive). Besides, the GI50 in the assay with SF-539, with NCI-H23 and with HOP-62 was > 100 µM (inactive) in each case.
